3 compounds from US20210338679A1, “NOVEL USES” (INTRA-CELLULAR THERAPIES, INC., priority 2018, published 2021) can be followed below.

Assay [1] relates to leukocytes, neutrophils, and macrophages (M1/M2 macrophages). In words: Mouse zymosan pleurisy model, flow cytometry of infiltrating cells. The class given is in vivo, mice. To be noted: for inflammatory resolution (shift from M1 to M2): zymosan sterile inflammation, FIGS. 1-9. On the procedure: (§1) Zymosan is injected into the pleural cavities of mice in order to induce sterile inflammation. Infiltration of leukocytes, neutrophils, and macrophages are monitored at days 3 and 7 following injection. Detection of various cell types are identified according to the gating strategy outlined in Table 1 below.
In this model, injection of zymosan causes the recruitment of various waves of leukocytes, which are observed and recorded. Exudate volume increases to a maximum over a period of 24 hours, and neutrophils increase within 4 hours and reach a maximum by 48 hours. Lymphocytes of the adaptive immune system enter at a later stage, after three days, which is signaled by macrophages presenting antigens. A resolution phase is well documented in this model and is accompanied by decreased total macrophage number and transition into M2 phenotype.
In the studies, Compounds 1 and 2 were administered to the test subjects, and the effect the compounds had on infiltration of leukocytes, neutrophils, and macrophages was observed.
Similar tests were conducted with Compound 2, the results of which are illustrated in FIGS. 8 and 9. […] An additional test was carried out according to the same method. Mice were injected intraperitoneally with 1 mg Zymosan followed by 10 mg/kg Compound 1. Macrophage levels were recorded at injection, then at 4, 8, 16, 24, 48 and 72 hours post-injection.

Assay [2] has as its system cytokine markers (IFNγ, IL-1β, MCP1-β, TNF-α, IL10, MCP-1/CCL2). Briefly: Inflammatory cytokine biomarkers in mouse zymosan pleurisy model. The class given is in vivo, mice. On the procedure: as §1
Zymosan was injected into the pleural cavities of mice in order to induce sterile inflammation by the methods discussed in Example 1. Compound 1 was administered to test subjects to observe the effects on a variety of inflammatory biomarkers. […] IFNγ, IL-1β, MCP1-β and TNF-α decreased following administration of Compound 1 in all serum and plasma samples.

Assay [3] deals with metabolites of AA and DHA. Briefly: Detection of arachidonic acid and docosahexaenoic acid metabolites in mouse zymosan pleurisy model. The class given is in vivo, mice. On the procedure: Zymosan was injected into the pleural cavities of mice in order to induce sterile inflammation by the methods discussed in Example 1. Compound 1 was administered to test subjects to observe the effects on a variety of inflammatory biomarkers. Results were recorded after 4 hours. […] IFNγ, IL-1β, MCP1-β and TNF-α decreased following administration of Compound 1 in all serum and plasma samples.
Lipids are known to be involved in regulation of a multitude of cellular responses including cell growth and death, and inflammation/infection, via receptor-mediated pathways. Various lipids are involved in both the initiation and resolution of inflammation. Pro-resolving lipid mediators are produced naturally in the body from unsaturated fatty acids, such as arachidonic acid (AA) and docosahexaenoic acid (DHA). Further studies were carried out to identify metabolites of AA and DHA, which are summarized below in Tables 2 and 3.

In a further assay the test system is BV2 cells. In words: Microglia chemotaxis assay. The class given is cell-based. To be noted: 100 μM ADP, 4 hours; FIG. 10. The procedure: BV2 cells were added to upper chamber of a 5 μm pore Transwell 96-well plate over a reservoir containing 100 μM ADP and incubated at 37° C. with 5% CO2 for 4 hours. After the incubation cells were harvested with pre-warmed cell detachment solution for 30 minutes in the same incubation conditions. 75 μl of this cell detachment solution was combined with 75 μl of culture medium in a new 96 well plate compatible with a fluorescence reader. Cell number in bottom chamber was determined by adding CyQuant® GR dye and reading in the Envision fluorescence reader at 480 nm EX/520 nm EM.

The subject of assay [4] is leukocytes, neutrophils, and macrophages (M1/M2 macrophages). Briefly: Mouse zymosan pleurisy model, flow cytometry of infiltrating cells. To be noted: 1 mg Zymosan i.p. followed by 10 mg/kg; day 7; FIG. 11A. The format is in vivo, mice. (In general: In flow cytometry, cells or beads pass a laser one at a time.)
Where [5] appears, read: after 4 hours, serum and plasma samples.
[6] abbreviates: arachidonic acid metabolite, compared with controls.
Where [7] appears, read: docosahexaenoic acid metabolite.

Each structure is given as a SMILES string.

For `CN1C(=O)c2c(nn(Cc3ccc(-c4ccccn4)cc3)c2Nc2ccccc2)N2C1=N[C@@H]1CCC[C@@H]12` [Compound 2], the “CD38+ macrophages” value in assay [1] (3 mg/kg, day 7, FIG. 8) is on record as “significant drop”. Also, in assay [1] (3 mg/kg, day 7, FIG. 9), the “Erg2+ macrophages” value is “sharp and significant increase”. In addition, the “inflammatory resolution (shift from M1 to M2)” value in assay [1] is given as “enhanced inflammatory resolution”.

`C[C@@H]1C[C@H]2[C@@H]3CCC4=CC(=O)C=C[C@]4(C)[C@@]3(F)[C@@H](O)C[C@]2(C)[C@@]1(O)C(=O)CO` [Dexamethasone, reference compound]: the “number of CD38+ macrophage populations” value in assay [1] (2 mg/kg, day 3 or 7, FIG. 8) is recorded as “no significant effect”. Moreover, in assay [1] (2 mg/kg, day 3 or 7, FIG. 9), the “number of Erg2+ macrophage populations” value is reported as “no significant effect”.

`CN1C(=O)c2c(nn(Cc3ccc(-c4cccc(F)n4)cc3)c2Nc2ccccc2)N2C1=N[C@@H]1CCC[C@@H]12` [Compound 1]: in assay [1] (1 mg Zymosan i.p. followed by 10 mg/kg, 4 hours, FIG. 12A), the “Arg1+ M2 macrophages” value was “increased”. In assay [1] (1 mg Zymosan i.p. followed by 10 mg/kg, all observed times, FIGS. 11A, 11B), the M1 macrophage levels result is given as “lower M1 macrophage levels”. Besides, the “CD206+ M2 macrophages” value in assay [1] (1 mg Zymosan i.p. followed by 10 mg/kg, relative to control at 2 and 3 days) is on record as “significantly increased”. Also, the “MFI for CD38+ on macrophages” value in assay [1] (day 3, among all animal groups, FIG. 6A) is given as “lowest value”. The “total numbers of CD38+ macrophages” value in assay [1] (day 3, FIG. 5A) is “decreased”. In addition, the number of neutrophils entry in assay [1] (day 7, compared with disease only and vehicle animals, FIG. 3A) is given as “less dramatic decrease”. For the same compound, the “inflammatory resolution (shift from M1 to M2)” value in assay [1] is given as “enhanced inflammatory resolution”. In addition, the IL10 entry in assay [2] (after 4 hours, serum) is recorded as “decrease”. Further, in assay [2] (setting [5]), the IFNγ entry is reported as “decreased”, the IL-1β result was “decreased”, the MCP1-β result is on record as “decreased” and the TNF-α result is reported as “decreased”. The “inflammatory biomarkers (MCP-1/CCL2)” value in assay [2] (plasma, at 3 and 7 days, in comparison with control groups, FIG. 7) was “less inflammatory biomarkers”. Also, in assay [3] (setting [6]), the “5-HETE (intermediate mediator linked to resolution)” value is “No change”, the “12-HETE (intermediate mediator linked to resolution)” value was “Increase”, the “15-HETE (intermediate mediator linked to resolution)” value was “Increase” and the “LTB4 (pro-inflammatory mediator)” value is given as “No change”. Moreover, in assay [3] (setting [6]), the “PGE2 (pro-inflammatory mediator)” value is “Decrease” and the “TXB2 (pro-inflammatory mediator)” value is on record as “Decrease”. For the same compound, in assay [3] (setting [7]), the “14-HDOHE (resolution mediator)” value is “Increase”, the “17-HDOHE (intermediate mediator linked to resolution)” value is “Increase” and the “RVD5 (intermediate mediator linked to resolution)” value is “Increase”. For the same compound, the “motility of the BV2 cells across the membrane” value in the assay on BV2 cells is given as “marked dampening effect”. Also, in assay [4], the “CD80+ macrophages (M1), difference to control” value is listed as “significant different”.
